SMILES strings stand for the structures.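 Exposure lasted 48 hours, with cells grown in 96-well plates and compounds tested at five concentrations. The concentration for 50% growth inhibition is given as GI50.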 The source made the active and inactive calls. No stated cut-off is given here; in the data, active = GI50 up to about 1.1 µM and inactive = higher. A value given as a limit tells only on which side of the number the result lay.

As usually defined, the GI50 is the concentration giving 50% growth inhibition.

Some test systems named below: 786-0; ACHN; COLO 205; HCT-15; Hs-578T; IGROV-1; MCF7; MDA-MB-435; MDA-N; Malme-3M; NCI-H23; OVCAR-3; OVCAR-5; SK-MEL-5; SK-OV-3; TK-10; U-251; UACC-257; OVCAR-4; SK-MEL-2.
Test in all cases: DTP human tumour cell line panel, 48 h

For the molecule `NP1(Oc2ccc(F)cc2)=NP(N)(Oc2ccc(F)cc2)=NP(Oc2ccc(F)cc2)(Oc2ccc(F)cc2)=N1` (centres undefined), the GI50 in the assay with 786-0 was 11 µM (inactive); in the assay with ACHN it was 3.32 µM (inactive); in the assay with COLO 205 it was 6.64 µM (inactive); with HCT-15, 3.81 µM; in the assay on Hs-578T it was 5.64 µM (inactive); with IGROV-1, 2.54 µM (inactive). The GI50 in the assay on MCF7 is 2.94 µM (inactive); in the assay on MDA-MB-435 it was 7.01 µM (inactive); with MDA-N, 6.47 µM (inactive); in the assay on Malme-3M, 5.27 µM (inactive); with NCI-H23, 11.2 µM (inactive); in the assay on OVCAR-3, 4.68 µM (inactive). Besides, the GI50 is 11.5 µM (inactive) in the assay on OVCAR-5; 4.91 µM (inactive) in the assay on SK-MEL-5; 14.2 µM (inactive) with SK-OV-3; 2.77 µM (inactive) in the assay on TK-10; 4.78 µM (inactive) in the assay on U-251; 12.3 µM (inactive) in the assay on UACC-257.

Turning to `C(/C=N/N=C1NCCCN1)=N\N=C1NCCCN1`, the GI50 in the assay with 786-0, with ACHN, in the assay on COLO 205, in the assay on Hs-578T, with IGROV-1 and with MCF7 was > 100 µM (inactive) in each case. Moreover, the GI50 in the assay with MDA-MB-435, in the assay on MDA-N, with Malme-3M, in the assay on NCI-H23, in the assay with OVCAR-3 and in the assay with OVCAR-4 was > 100 µM (inactive) in each case. The GI50 with OVCAR-5 is > 100 µM (inactive); in the assay on SK-MEL-5 it was > 100 µM (inactive); in the assay on SK-OV-3 it was > 100 µM (inactive); in the assay on TK-10, > 10 µM (inactive); in the assay with U-251, > 100 µM (inactive); in the assay on UACC-257 it was > 100 µM (inactive).

As to `CC1(C)C=C(/C=N/Nc2ccc(Br)cc2)C(C#N)=C(O)C1(C#N)C#N`, the GI50 in the assay on 786-0 is 47.2 µM (inactive); with ACHN, 33.3 µM (inactive); in the assay on COLO 205, 19.8 µM (inactive); in the assay on Hs-578T, 63.8 µM (inactive); in the assay with IGROV-1, 81.8 µM (inactive); in the assay on MCF7 it was 26.5 µM (inactive). The GI50 in the assay with MDA-MB-435 is 39.7 µM (inactive); with MDA-N, 42.2 µM (inactive); in the assay on Malme-3M, 89.7 µM (inactive); with NCI-H23, 46 µM (inactive); in the assay on OVCAR-3, 31.9 µM (inactive); with OVCAR-4 it was 40 µM (inactive). Also, the GI50 is > 100 µM (inactive) in the assay with OVCAR-5; > 100 µM (inactive) with SK-MEL-5; 57.8 µM (inactive) in the assay with SK-OV-3; 83.6 µM (inactive) with TK-10; 31.8 µM (inactive) in the assay on UACC-257.

As to `O=CN(CCN1CCCC1)C1CCc2cc(Cl)c(Cl)cc2C1` (centres undefined), the GI50 is 7.55 µM (inactive) with 786-0; 20.4 µM (inactive) in the assay with COLO 205; 15.8 µM with HCT-15; 13.6 µM (inactive) in the assay with Hs-578T; 22.1 µM (inactive) in the assay on IGROV-1; 15 µM (inactive) with MDA-MB-435. Moreover, the GI50 is 10 µM (inactive) in the assay on MDA-N; 13.6 µM (inactive) in the assay with Malme-3M; 17.4 µM (inactive) in the assay on NCI-H23; 12.3 µM (inactive) in the assay with OVCAR-3; 18.7 µM (inactive) in the assay with OVCAR-4; 17.4 µM (inactive) in the assay on OVCAR-5. Moreover, the GI50 in the assay on SK-MEL-5 is 27.2 µM (inactive); in the assay with SK-OV-3, 0.714 µM (active); in the assay on TK-10, 16.3 µM (inactive); with U-251 it was 0.513 µM (active); with UACC-257, 15.2 µM (inactive).

As for `CCOC(=O)c1c(N2CCOCC2)[nH]c(=O)c(C(c2ccc(OC)cc2)c2c(O)c(C(=O)OCC)c(N3CCOCC3)[nH]c2=O)c1O`, the GI50 with 786-0 was > 100 µM (inactive); in the assay with ACHN, > 100 µM (inactive); with COLO 205 it was > 100 µM (inactive); in the assay with HCT-15, above 100 µM; in the assay with Hs-578T, > 100 µM (inactive); in the assay with MCF7, > 100 µM (inactive). Moreover, the GI50 with MDA-MB-435, in the assay on MDA-N, with Malme-3M, in the assay with NCI-H23, in the assay on OVCAR-3 and in the assay with OVCAR-4 was > 100 µM (inactive) in each case. For the same molecule, the GI50 in the assay with OVCAR-5, in the assay on SK-MEL-5, in the assay with SK-OV-3, in the assay on TK-10, in the assay with U-251 and in the assay on UACC-257 was > 100 µM (inactive) each time.

`Cc1nc2ccccc2n1COC(Cn1ccnc1)c1ccc(Cl)cc1Cl` (centres undefined): the GI50 in the assay on 786-0 is 75.7 µM (inactive); in the assay with ACHN, 34.8 µM (inactive); in the assay on COLO 205 it was 39.3 µM (inactive); in the assay with HCT-15, 34.8 µM; in the assay with Hs-578T, 81.7 µM (inactive); with IGROV-1, > 100 µM (inactive). The GI50 in the assay with MCF7 was 41.7 µM (inactive); in the assay on MDA-MB-435, 50.1 µM (inactive); in the assay with MDA-N, 48.8 µM (inactive); in the assay with Malme-3M, > 100 µM (inactive); in the assay on NCI-H23 it was 55.8 µM (inactive); with OVCAR-3 it was 41.4 µM (inactive). Besides, the GI50 was 30.4 µM (inactive) with OVCAR-4; > 100 µM (inactive) in the assay with OVCAR-5; 64 µM (inactive) in the assay on SK-MEL-2; 22.4 µM (inactive) in the assay with SK-MEL-5; 83.9 µM (inactive) with TK-10; 86.9 µM (inactive) in the assay on U-251. Moreover, the GI50 with UACC-257 is 31 µM (inactive).

For the molecule `Nc1nccc(NCC2(CO)CCC2)n1`, the GI50 was > 100 µM (inactive) in the assay with 786-0; > 100 µM (inactive) with ACHN; > 100 µM (inactive) with COLO 205; above 100 µM with HCT-15; > 100 µM (inactive) in the assay with Hs-578T; > 100 µM (inactive) in the assay on IGROV-1. Moreover, the GI50 in the assay with MCF7 is 68.9 µM (inactive); in the assay with MDA-MB-435 it was > 100 µM (inactive); in the assay with MDA-N, > 100 µM (inactive); in the assay with Malme-3M, > 100 µM (inactive); in the assay on NCI-H23 it was > 100 µM (inactive); in the assay on OVCAR-3, > 100 µM (inactive). For the same molecule, the GI50 in the assay with OVCAR-5 was > 100 µM (inactive); in the assay with SK-MEL-2 it was > 100 µM (inactive); in the assay on SK-MEL-5 it was > 100 µM (inactive); with TK-10, 36.7 µM (inactive); in the assay on U-251, > 100 µM (inactive); in the assay with UACC-257 it was > 100 µM (inactive).

For `COc1cccc(C(=O)Oc2ccc(OS(=O)(=O)c3ccc(C)cc3)cc2)c1C#N`, the GI50 in the assay on 786-0 is 86.9 µM (inactive); in the assay with ACHN it was 94 µM (inactive); in the assay on COLO 205, 71.4 µM (inactive); in the assay on HCT-15, 74 µM; with Hs-578T, 86.7 µM (inactive); with IGROV-1 it was 29 µM (inactive). Besides, the GI50 in the assay on MCF7 is 49.7 µM (inactive); in the assay with MDA-MB-435, 55.5 µM (inactive); with MDA-N, 68.2 µM (inactive); in the assay with Malme-3M, 32.4 µM (inactive); with NCI-H23 it was 50.4 µM (inactive); in the assay with OVCAR-3 it was 29.9 µM (inactive). Further, the GI50 in the assay on OVCAR-4 is 52.5 µM (inactive); in the assay with OVCAR-5, > 100 µM (inactive); in the assay on SK-MEL-2, 66.5 µM (inactive); in the assay with SK-MEL-5, 11.4 µM (inactive); in the assay with TK-10, 78.7 µM (inactive); in the assay on U-251 it was > 100 µM (inactive). In the assay on UACC-257, the GI50 is 28.6 µM (inactive).

With `COc1cc2c(cc1OCCCCOc1cc3c(cc1OC)C(=O)N1CCC[C@H]1C(=O)N3)N=C[C@@H]1CCCN1C2=O`, the GI50 with 786-0 was 13.2 µM (inactive); with ACHN it was 14.7 µM (inactive); with COLO 205, 2.55 µM (inactive); with HCT-15, 12.2 µM; in the assay on Hs-578T it was 10.3 µM (inactive); in the assay with IGROV-1 it was 8.57 µM (inactive). The GI50 in the assay with MCF7 was 2.72 µM (inactive); in the assay on MDA-MB-435, 4.2 µM (inactive); with MDA-N, 7.28 µM (inactive); with Malme-3M, 9.79 µM (inactive); with NCI-H23 it was 12.8 µM (inactive); in the assay with OVCAR-3, 11.5 µM (inactive). Besides, the GI50 is 13.1 µM (inactive) in the assay on OVCAR-4; 13.1 µM (inactive) in the assay on OVCAR-5; 5.57 µM (inactive) in the assay with SK-MEL-2; 4 µM (inactive) with SK-MEL-5; 12.9 µM (inactive) in the assay on TK-10; 3.93 µM (inactive) with U-251. Also, the GI50 in the assay on UACC-257 is 14.9 µM (inactive).

With `O=C(/C=C/c1ccc(/C=C/C(=O)c2ccc(O)cc2)cc1)c1ccc(O)cc1`, the GI50 was 74 µM (inactive) in the assay on 786-0; > 100 µM (inactive) in the assay on ACHN; > 100 µM (inactive) with COLO 205; above 100 µM in the assay with HCT-15; > 100 µM (inactive) with Hs-578T; > 10 µM (inactive) in the assay with IGROV-1. In addition, the GI50 with MCF7, in the assay on MDA-MB-435, in the assay with MDA-N, in the assay on NCI-H23, in the assay with OVCAR-3 and in the assay with OVCAR-5 was > 100 µM (inactive) each time. The GI50 in the assay on SK-MEL-2 was > 100 µM (inactive); in the assay on SK-MEL-5, > 100 µM (inactive); with TK-10, > 100 µM (inactive); with U-251 it was 16.4 µM (inactive); with UACC-257 it was > 100 µM (inactive).

Take `CC[C@H](CC[C@@H](C)[C@H]1CC[C@H]2[C@@H]3CC=C4C[C@@H](O)CC[C@]4(C)[C@H]3CC[C@]12C)C(C)C` [BETA-SITOSTEROL]: the GI50 was > 100 µM (inactive) in the assay with 786-0; > 100 µM (inactive) in the assay with ACHN; > 100 µM (inactive) with COLO 205; above 100 µM in the assay with HCT-15; > 100 µM (inactive) in the assay with Hs-578T; > 100 µM (inactive) with IGROV-1. In addition, the GI50 in the assay with MCF7, with MDA-MB-435, in the assay with MDA-N, in the assay with Malme-3M, with NCI-H23 and in the assay on OVCAR-3 was > 100 µM (inactive) each time. The GI50 in the assay on OVCAR-4, in the assay with OVCAR-5, in the assay with SK-MEL-2, with SK-MEL-5, in the assay on TK-10 and in the assay with U-251 was > 100 µM (inactive) throughout. In addition, the GI50 in the assay with UACC-257 is > 100 µM (inactive).

The values above are taken from ChEMBL document CHEMBL1201862, “PubChem BioAssay data set” (2004).
